Laboratory results from PMC5047857, “Screening, production, optimization and characterization of β-glucosidase using microbes from shellfish waste” (3 Biotech, 2016).

Test system: T1, β-glucosidase
T1 construct: gene EC 3.2.1.21; native extracellular enzyme, partially purified from culture (ammonium sulfate, dialysis, Sephadex gel filtration); approx. 50 kDa by SDS-PAGE
Experiment: p-nitrophenol release, absorbance at […] nm; plot of activity against substrate concentration
Type: biochemical, Proteus mirabilis
Details: partially purified enzyme; substrate of the standard assay (pNPG); pH and temperature of the kinetic run not given

Compound `O=[N+]([O-])c1ccc(O[C@@H]2O[C@H](CO)[C@@H](O)[C@H](O)[C@H]2O)cc1` [pNPG, p-Nitrophenyl-β-D-glucopyranoside] has a Km of 82 µM.
